According to patent US20030134901A1, “Lipoxin compounds and their use in treating cell proliferative disorders” (priority 1993, published 2003):

Key:
[1] = system: peripheral blood monocytes; assay: LXA4 metabolism by peripheral blood monocytes; format: in vitro ADME, human; details: within 30 s
Experimental: Human PMN were obtained from healthy volunteers by gradient centrifugation of heparinized fresh venous blood (Böyum, A. ([…]) Scand. J. Clin. Lab. Invest. 21:77). HL-60 cells were seeded in RPMI supplemented with penicillin (100 U/ml), streptomycin (100 μ/ml), fetal bovine serum (10%) (Hyclone, Logan, Utah) and incubated (37° C. with 5% CO2 atmosphere) in plastic 250 ml flasks. Individual flasks containing […] HL-60 cells/ml were incubated in the presence or absence of phorbol 12-myristate 13-acetate (PMA) (10 or 16 nM, 24-27 h) and adherence was monitored for induction of macrophage-like phenotype as in Collins, S. J. (1987) Blood 70:1233. […]
Incubations with eicosanoids were stopped with cold methanol containing either PGB2 or 5-HETE as internal standards (5-HETE was used when 15-oxo-ETE was quantified). […] Formation of 15-oxo-ETE by 100,000 g supernatants (cf. Agins, A. P. et al. (1987) Agents Actions 21:397; Xun, C-Q. et al.(1991) Biochem. J. 279:553; and Sok, D-E. et al. (1988) Biochem. Biophys. Res. Commun. 156:524) was quantified after RP-HPLC using an ODS column (4.6 mm×25 cm) eluted with methanol/H2O/acetic acid (70:30:0.01, v/v/v) monitored at 280 nm with a flow rate of 1 ml/min. […] On-line spectra were recorded using a diode array detector (Hewlett-Packard 1040M series II) equipped with HPLC^3D ChemStation software (DOS series). […]

human skin fibroblasts = assay: Fibroblast proliferation, MTT assay; format: cell-based; details: Homo sapiens, Skin fibroblast; 100 nM, n=3
Description: Human type II epithelial A549 cells from human lung carcinoma and normal human skin fibroblast (breast) were obtained from the American Type Culture Collection (Rockville, Md.). The A549 cell line originated from a human alveolar cell carcinoma and was a useful cell line because it was easily assessable and could be maintained in culture without contaminating tissue macrophages. (Lieber, M., et al (1976) A continuous tumor-cell line from a human lung carcinoma with properties of type II alveolar epithelial cells. Int. J Cancer Fibroblasts were utilized within their limited window of viability and their passage numbers were recorded (results are reported for cells from 3-5 passages). Epithelial A549 cells were seeded into T-75 cm^2 tissue culture flasks and maintained in F-12K medium supplemented with 10% heat-inactivated FBS, penicillin (50 U/mL) and streptomycin (50 (g/mL). Human PMN from healthy donors who had not taken ASA or other medications for at least two weeks were obtained by Ficoll-Hypaque gradient centrifugation and dextran sedimentation, (Böyum A. (1968) Isolation of mononuclear cells and granulocytes from human blood. […] Viability of A549 cells and PMN was determined by their ability to exclude trypan blue and were 95±2 and 97±1%, respectively.
A microculture 3,(4,5-dimethylthiazoyl-2-yl) 2,5 (diphenyl-tetrazolium bromide) (MTT) assay, (Marshall, N. J., et al. (1995) A critical assessment of the use of microculture tetrazolium assays to measure cell growth and function. Growth Regul. 5: 69-84.), was used to examine the actions of LXs and other eicosanoids on cell proliferation. A549 cells and fibroblasts from exponential-phase maintenance cultures were counted and dispensed within replicate 96-well culture plates in 100 μl volumes of medium (˜2000 cells/well). […] Dye solution was aspirated, wells were washed once with HBSS and dye taken up by the cells was extracted in 100 μl of isopropyl alcohol:1 N HCl (96:4, v/v) and quantitated at 570 nm using a microplate reader (Molecular Devices, Menlo Park, Calif.). […]

For `CCCCC[C@H](O)/C=C/C=C\C=C\C=C\[C@@H](O)[C@@H](O)CCCC(=O)O` [LXA4, (5S, 6R, 15S)-trihydroxy-7E, 9E, 11Z, 13E-eicosatetraenoic acid], the LXA4 converted [1] was > 60% and the inhibition at 0.1 µM (human skin fibroblasts) was 10.7%.
